Laboratory results published in PubChem BioAssay (NCI).
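Values below derive from 48-hour exposures of cells grown in 96-well plates, with endpoints linearly interpolated between the two concentrations bracketing the appropriate inhibition level. TGI: concentration producing complete growth inhibition.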

Experiments:
Test in all cases: DTP human tumour cell line panel, 48 h
A498 renal = test system: A498 renal
ACHN renal = test system: ACHN renal
COLO 205 colon = test system: COLO 205 colon
HL-60(TB) leukemia = test system: HL-60(TB) leukemia
HOP-62 NSCLC = test system: HOP-62 NSCLC
M14 melanoma = test system: M14 melanoma
MOLT-4 leukemia = test system: MOLT-4 leukemia
NCI-H226 lung = test system: NCI-H226 lung
NCI-H23 lung = test system: NCI-H23 lung
OVCAR-8 ovarian = test system: OVCAR-8 ovarian
RPMI-8226 leukemia = test system: RPMI-8226 leukemia
SNB-75 CNS = test system: SNB-75 CNS
U251 CNS = test system: U251 CNS
UACC-62 melanoma = test system: UACC-62 melanoma
LOX IMVI melanoma = test system: LOX IMVI melanoma
MDA-MB-435 = test system: MDA-MB-435
MDA-N = test system: MDA-N

SMILES	TGI (A498 renal)	TGI (ACHN renal)	TGI (COLO 205 colon)	TGI (HL-60(TB) leukemia)	TGI (HOP-62 NSCLC)	TGI (M14 melanoma)	TGI (MOLT-4 leukemia)	TGI (NCI-H226 lung)	TGI (NCI-H23 lung)	TGI (OVCAR-8 ovarian)	TGI (RPMI-8226 leukemia)	TGI (SNB-75 CNS)	TGI (U251 CNS)	TGI (UACC-62 melanoma)	TGI (LOX IMVI melanoma)	TGI (MDA-MB-435)	TGI (MDA-N)
CC(=O)c1ccc(N2C(=O)C3c4[nH]c5ccccc5c4C4CCC(C(C)(C)C)CC4C3C2=O)cc1 (configuration not stated)	71.3 µM	87.9 µM	29.1 µM	76.9 µM	38.5 µM	67.8 µM	> 100 µM	47.6 µM	45.3 µM	54.7 µM	54 µM	94.7 µM	39.8 µM	59.3 µM	–	–	–
C/C(=C1/N=C(c2cc([N+](=O)[O-])ccc2Cl)N(c2ccc(Br)cc2)C1=O)c1ccc(N(CCC#N)CCC#N)cc1C	96.4 µM	> 100 µM	97 µM	36.3 µM	> 100 µM	> 100 µM	> 100 µM	> 100 µM	> 100 µM	> 100 µM	77.2 µM	> 100 µM	–	97.5 µM	29.1 µM	–	–
CC(C)OP(=O)(OC(C)C)C(=NCCO)NNc1ccc([N+](=O)[O-])cc1	> 100 µM	> 100 µM	> 100 µM	> 100 µM	> 100 µM	> 100 µM	> 100 µM	> 100 µM	> 100 µM	> 100 µM	> 100 µM	> 100 µM	> 100 µM	> 100 µM	> 100 µM	–	–
COC1(OC)CC2C(=O)N(Cc3ccccc3)C1C(S(=O)(=O)c1ccccc1)C2C(C)S(=O)(=O)c1ccccc1 (configuration not stated)	–	> 100 µM	> 100 µM	> 100 µM	> 100 µM	> 100 µM	> 100 µM	–	> 100 µM	> 100 µM	> 100 µM	–	> 100 µM	> 100 µM	> 100 µM	–	–
CN(C)CCCNC(=O)N/N=C/c1ccc(O)cc1	> 100 µM	> 100 µM	> 100 µM	> 100 µM	> 100 µM	> 100 µM	> 100 µM	> 100 µM	> 100 µM	> 100 µM	–	> 100 µM	> 100 µM	> 100 µM	–	> 100 µM	> 100 µM
CC1CC(=O)Nc2ccc(Cl)cc2N1C(=O)CN1CCC(CCCCN(C)C)CC1 (configuration not stated)	> 100 µM	> 100 µM	> 100 µM	> 100 µM	> 100 µM	> 100 µM	> 100 µM	> 100 µM	> 100 µM	> 100 µM	> 100 µM	–	> 100 µM	> 100 µM	> 100 µM	–	–
Cc1ccc(S(=O)(=O)NC(=O)C2S(=O)(=O)OCCOS2(=O)=O)cc1	–	–	> 100 µM	> 100 µM	> 100 µM	> 100 µM	–	> 100 µM	> 100 µM	> 100 µM	> 100 µM	> 100 µM	–	> 100 µM	–	–	–
CC1=C(C(=O)NNC(=O)Cc2ccccc2)CC(C(=O)NNC(=O)Cc2ccccc2)=C(C)N1	> 100 µM	> 100 µM	> 100 µM	> 100 µM	> 100 µM	> 100 µM	–	> 100 µM	> 100 µM	> 100 µM	–	> 100 µM	> 100 µM	> 100 µM	> 100 µM	> 100 µM	> 100 µM
Cc1nc2cn3c(c2c(=O)[nH]1)CCCCC3	> 100 µM	> 100 µM	> 100 µM	> 100 µM	> 100 µM	> 100 µM	> 100 µM	> 100 µM	> 100 µM	> 100 µM	> 100 µM	> 100 µM	> 100 µM	> 100 µM	> 100 µM	> 100 µM	–
CCOC(=O)/C(Br)=C1\OC(=O)c2ccccc2-c2ccccc21	–	> 100 µM	49.9 µM	40.1 µM	54.7 µM	> 100 µM	65.5 µM	86.1 µM	> 100 µM	> 100 µM	> 100 µM	> 100 µM	> 100 µM	> 100 µM	> 100 µM	–	–
NCCOc1ccc(/C(=C(/Cl)c2ccccc2)c2ccccc2)cc1	34.1 µM	27.2 µM	3.59 µM	7.61 µM	32.7 µM	5.29 µM	14.7 µM	36.7 µM	30.7 µM	29.6 µM	11 µM	24.1 µM	23.7 µM	25.3 µM	16.6 µM	–	–
CCN(CC)CC1CCCCN1CC(=O)N1c2cc(Cl)ccc2NC(=O)CC1C (configuration not stated)	> 100 µM	> 100 µM	> 100 µM	> 100 µM	> 100 µM	> 100 µM	> 100 µM	> 100 µM	> 100 µM	> 100 µM	> 100 µM	> 100 µM	> 100 µM	> 100 µM	> 100 µM	–	–
C=CCn1c(-c2cc(C(C)(C)C)c(O)c(C(C)(C)C)c2)cs/c1=N\C(P(=O)(O)O)P(=O)(O)O	> 100 µM	> 100 µM	> 100 µM	> 100 µM	> 100 µM	> 100 µM	> 100 µM	> 100 µM	> 100 µM	> 100 µM	> 100 µM	> 100 µM	> 100 µM	–	–	> 100 µM	–
COc1c(C)c(C/C=C(\C)CC/C=C(\C)CC/C=C(\C)CCC=C(C)C)c(OC)c(OC)c1OC	–	> 100 µM	> 100 µM	–	> 100 µM	> 100 µM	> 100 µM	–	> 100 µM	> 100 µM	–	> 100 µM	> 100 µM	> 100 µM	> 100 µM	> 100 µM	> 100 µM
Cc1cc(C)cc(Nc2nnc3n2S(=O)(=O)c2cc(C)c(Cl)cc2S3)c1	29.6 µM	47.8 µM	> 100 µM	> 100 µM	41.6 µM	33.4 µM	> 100 µM	30.5 µM	19.2 µM	> 100 µM	42 µM	> 100 µM	22.9 µM	34.9 µM	21.3 µM	91.2 µM	–
